Measured values published in publication PMC5662840, “Effect of Gelsemium elegans and Mussaenda pubescens, the Components of a Detoxification Herbal Formula, on Disturbance of the Intestinal Absorptions of Indole Alkaloids in Caco-2 Cells” (Evidence-based Complementary and Alternative Medicine : eCAM, 2017).

Legend:
P-gp = target: T1, P-gp (Homo sapiens, UniProt P08183); assay: Inhibition transport study: GM with verapamil (P-gp inhibitor) across Caco-2 cells monolayer; assay type: in vitro ADME; settings: for decrease of efflux ratio γ: GM + verapamil compared with GM; for Papp A→B / Papp B→A / efflux ratio / Papp A→B at 4 h / Papp B→A at 4 h / efflux ratio at 4 h: human, Caco-2; for Papp A→B / Papp B→A / Papp A→B at 4 h / Papp B→A at 4 h: GM + verapamil (50 μmol), mean ± SEM, n = 3; for Papp A→B / Papp A→B at 4 h: apical-to-basolateral; for Papp B→A / Papp B→A at 4 h: basolateral-to-apical; for efflux ratio / efflux ratio at 4 h: GM + verapamil, read-out: efflux ratio γ (Papp BL-AP / Papp AP-BL)
T1 construct: endogenous in cells; host or cells: Caco-2 cells (cell bank of Chinese Academy of Sciences)
T1 sequence (P08183 whole entry): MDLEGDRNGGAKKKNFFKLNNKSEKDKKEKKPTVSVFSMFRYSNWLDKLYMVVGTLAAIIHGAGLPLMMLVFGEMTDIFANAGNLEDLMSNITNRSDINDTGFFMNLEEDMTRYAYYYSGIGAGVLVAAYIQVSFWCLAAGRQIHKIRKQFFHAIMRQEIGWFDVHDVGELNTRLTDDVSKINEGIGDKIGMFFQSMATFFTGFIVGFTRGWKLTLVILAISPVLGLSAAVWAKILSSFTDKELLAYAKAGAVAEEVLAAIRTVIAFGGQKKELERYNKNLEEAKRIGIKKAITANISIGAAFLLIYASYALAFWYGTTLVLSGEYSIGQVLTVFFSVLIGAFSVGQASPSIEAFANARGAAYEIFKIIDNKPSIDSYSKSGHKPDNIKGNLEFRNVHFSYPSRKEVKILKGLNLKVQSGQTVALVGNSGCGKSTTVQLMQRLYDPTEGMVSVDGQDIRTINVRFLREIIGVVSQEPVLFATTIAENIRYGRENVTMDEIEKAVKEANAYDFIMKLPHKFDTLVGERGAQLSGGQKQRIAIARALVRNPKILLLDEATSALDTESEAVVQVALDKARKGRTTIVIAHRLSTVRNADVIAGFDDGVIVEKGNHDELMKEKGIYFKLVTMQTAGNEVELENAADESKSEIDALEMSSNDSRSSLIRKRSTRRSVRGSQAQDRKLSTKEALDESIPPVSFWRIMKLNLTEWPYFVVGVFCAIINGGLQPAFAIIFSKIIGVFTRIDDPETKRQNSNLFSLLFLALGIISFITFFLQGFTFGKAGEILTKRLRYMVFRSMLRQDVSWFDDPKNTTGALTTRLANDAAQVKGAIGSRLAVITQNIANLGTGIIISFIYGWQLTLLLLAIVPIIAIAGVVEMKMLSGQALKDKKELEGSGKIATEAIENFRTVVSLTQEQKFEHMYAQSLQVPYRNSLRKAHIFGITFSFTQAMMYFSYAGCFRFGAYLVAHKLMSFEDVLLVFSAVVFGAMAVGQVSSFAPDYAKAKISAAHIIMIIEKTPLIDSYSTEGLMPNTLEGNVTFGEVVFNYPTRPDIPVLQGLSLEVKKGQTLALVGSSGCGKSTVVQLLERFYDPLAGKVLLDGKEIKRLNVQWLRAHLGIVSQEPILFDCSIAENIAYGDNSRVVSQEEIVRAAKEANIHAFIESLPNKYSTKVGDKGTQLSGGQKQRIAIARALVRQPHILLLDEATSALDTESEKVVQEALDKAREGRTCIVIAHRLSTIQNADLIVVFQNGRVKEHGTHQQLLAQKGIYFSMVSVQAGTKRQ
Protocol: (§1) As efflux transporters (P-gp and MRP2) are expressed on the apical side of Caco-2 cells, the absorption or efflux transport of indole alkaloids across this model was investigated in the presence of efflux transporters inhibitors. A selective P-gp inhibitor, verapamil (50 μmol), was added to GM. 10 μmol ciclosporin (a P-gp and MRP2 inhibitor) was also added to GM. The control group was set as well. After the preincubation, the different mixes were performed in Caco-2 cells monolayer. Transport studies were undertaken as mentioned above in the absorptive direction (AP-BL) and the efflux direction (BL-AP), separately. The samples were taken at 0, 1, 2, 3, and 4 h for LC-MS/MS analysis. The absorption and efflux transport apparent permeability (Papp) of indole alkaloids were determined.
(§2) All experiments were run in triplicate. […] The apparent permeability coefficients (Papp) for both the absorptive direction (AP→BL) and the efflux direction (BL→AP) studies were calculated according to the following:(3) Papp=dQ/dt/A×C0, where dQ/dt (μg·min^−1) is the drug permeation rate, A (cm^2) is the filter surface area, and C0 (μg·mL^−1) is the initial concentration in the donor chamber at t = 0 min.
(§3) The efflux ratio (γ) was calculated with the following equation:(4) γ=PappBL-AP/PappAP-BL.
(§4) The γ values are used to assess the effect of efflux transporters on the test compounds in the presence and absence of efflux transporters inhibitors.

Caco-2 cells monolayer = assay: Bidirectional transport of indole alkaloids from GE and GM extracts across Caco-2 cells monolayer; assay type: in vitro ADME, Human; settings: for decrement of absorbance percentage: GM (GE combined with MP) versus GE sample; for efflux Papp relative to absorptive Papp: GM sample; for efflux ratio γ (Papp BL-AP / Papp AP-BL): GM without inhibitor
Protocol: (§5) Human colon adenocarcinoma cell lines (Caco-2) were obtained from the cell bank of Chinese Academy of Sciences (Beijing, China). Cells were routinely grown in DMEM supplemented with 10% (v/v) fetal bovine serum, 1% (v/v) glutamine, 1% (v/v) nonessential amino acid solution, and 100 U/mL penicillin-streptomycin solution under a humidified atmosphere of 5% CO2 at 37°C. The medium was replaced every 2 days after incubation. After reaching 80% confluence, cells were passaged at a split ratio of 1 : 5, using 0.05% trypsin-EDTA. For the transport experiments, the cells of passages were seeded at a density of 1.0 × 10^6 cells/cm^2 on permeable polycarbonate inserts in 6-well tissue culture plates (Transwell Polycarbonate Membrance Insert 3414, Corning, USA), which has a surface area of 4.2 cm^2. Culture medium was changed every two days for 14 days and daily thereafter for the next 7 days. In our culture condition, cells monolayer, after seeding approximately between 19 and 21 days, usually was available for transport experiments.
(§6) The extracts, including GE and GM, were freshly prepared to the desired final concentration in DMSO. The final concentrations of DMSO in the incubation system were controlled within 0.1% (v/v) in all subsequent experiments. All transport experiments were conducted at 37°C unless specified otherwise. Transport of indole alkaloids across the Caco-2 cells monolayer was studied using monolayer of 19–21 days after seeding. Before the experiment, the monolayer was washed twice and preincubated with the blank HBSS for 1 h. Thereafter the HBSS solution on both sides of the cells monolayer was aspirated.
(§7) Transport studies were conducted in the absorptive direction (apical- (AP-) basolateral (BL)) and the efflux direction (BL-AP), separately. For determination of AP to BL transport, 2.5 mL of sample solutions was added to the AP side, respectively, and 2.5 mL of blank HBSS was added to the BL side. For determination of BL to AP transport, 2.5 mL of sample solutions was added to the BL side, respectively, and 2.5 mL of blank HBSS was added to the AP side. The cells monolayer was then put into a shaker at 50 rpm during the transport process. 400 μL of samples was taken for LC-MS/MS analysis at 0, 1, 2, 3, and 4 h after incubation, followed by an immediate replacement of 400 μL of the same solutions. At the end of the transport experiment, integrity of the monolayer was monitored by TEER value.
(§8) 400 μL of samples obtained from the Caco-2 cells transport assays was dried under nitrogen, and the residues were dissolved in 800 μL of 50% methanol. Followed by centrifugation at 12,000 rpm for 15 min, the supernatants were directly analyzed with UPLC-ESI-MS/MS. Chromatography-mass spectrum conditions were set as described above. The method researches of LC-MS/MS were similar to those described previously. Regression equations of gelsemine, humantenidine, koumine, gelsenicine, gelsevirine, and humantenine were Y = 23675X − 2864 (r = 0.9995), Y = 66331X + 13558 (r = 0.9995), Y = 6268X − 1503 (r = 0.9996), Y = 91160X − 10147 (r = 0.9998), Y = 32116X − 3951 (r = 0.9990), and Y = 36977X + 13830 (r = 0.9994), respectively.
as §2, §3

[1] = as above; assay type: in vitro ADME, Human; settings: human; for efflux ratio / efflux ratio at 4 h: Caco-2, GM without inhibitor, read-out: efflux ratio γ (Papp BL-AP / Papp AP-BL); for Papp A→B / Papp B→A / Papp A→B at 4 h / Papp B→A at 4 h: Caco-2, GM (control group), mean ± SEM, n = 3; for Papp A→B / Papp A→B at 4 h: apical-to-basolateral; for Papp B→A / Papp B→A at 4 h: basolateral-to-apical
Protocol: as §5, §6, §7, §8, §2, §3

P-gp and MRP2 = assay: Inhibition transport study: GM with ciclosporin (P-gp and MRP2 inhibitor) across Caco-2 cells monolayer; assay type: in vitro ADME, Human; settings: for decrease of efflux ratio γ: GM + ciclosporin compared with GM; for Papp A→B / Papp B→A / efflux ratio / Papp A→B at 4 h / Papp B→A at 4 h / efflux ratio at 4 h: human, Caco-2; for Papp A→B / Papp B→A / Papp A→B at 4 h / Papp B→A at 4 h: GM + ciclosporin (10 μmol), mean ± SEM, n = 3; for Papp A→B / Papp A→B at 4 h: apical-to-basolateral; for Papp B→A / Papp B→A at 4 h: basolateral-to-apical; for efflux ratio / efflux ratio at 4 h: GM + ciclosporin, read-out: efflux ratio γ (Papp BL-AP / Papp AP-BL)
Protocol: as §1, §2, §3, §4

| Compound | decrease of efflux ratio γ (P-gp) | Papp A→B (P-gp) | Papp B→A (P-gp) | efflux ratio (P-gp) | decrement of absorbance percentage (Caco-2 cells monolayer; apical to basolateral) | efflux Papp relative to absorptive Papp (Caco-2 cells monolayer) | efflux ratio γ (Papp BL-AP / Papp AP-BL) (Caco-2 cells monolayer) | efflux ratio [1] | Papp A→B [1] | Papp B→A [1] | decrease of efflux ratio γ (P-gp and MRP2) | Papp A→B (P-gp and MRP2) | Papp B→A (P-gp and MRP2) | efflux ratio (P-gp and MRP2) | Papp A→B at 4 h (P-gp) | Papp B→A at 4 h (P-gp) | efflux ratio at 4 h (P-gp) | efflux ratio at 4 h [1] | Papp A→B at 4 h [1] | Papp B→A at 4 h [1] | further results |
| --- | --- | --- | --- | --- | --- | --- | --- | --- | --- | --- | --- | --- | --- | --- | --- | --- | --- | --- | --- | --- | --- |
| C=CC12CN(C)C3C4COC(CC41)C1(C(=O)N(OC)c4ccccc41)C32 (centres unmarked) [Gelsevirine, gelsevirine] | 36.00% | 392 ± 58.1 ×10⁻⁶ cm/s | 503 ± 93 ×10⁻⁶ cm/s | 1.28 | over 3% | approximately 2.0 times | 2.00 | > 2 | 6.33 ± 2.31 ×10⁻⁶ cm/s | 12.7 ± 2.67 ×10⁻⁶ cm/s | 34.00% | 464 ± 93.8 ×10⁻⁶ cm/s | 614 ± 56.8 ×10⁻⁶ cm/s | 1.32 | – | – | – | – | – | – | – |
| C/C=C1\CN(C)[C@H]2C[C@@]3(C(=O)N(OC)c4ccccc43)[C@H]3C[C@@H]1[C@@H]2CO3 [Humantenine, humantenine] | 8.90% | 437 ± 71.2 ×10⁻⁶ cm/s | 580 ± 109 ×10⁻⁶ cm/s | 1.33 | about 12% | – | – | 1.46 | 6.93 ± 1.59 ×10⁻⁶ cm/s | 9.87 ± 1.75 ×10⁻⁶ cm/s | 15.07% | 515 ± 101 ×10⁻⁶ cm/s | 637 ± 90.1 ×10⁻⁶ cm/s | 1.24 | – | – | – | – | – | – | – |
| CCC1=NC2CC3(C(=O)N(OC)c4ccccc43)C3OCC2C1C3O (centres unmarked) [Humantenidine, humantenidine] | 43.69% | 3.14 ± 1.19 ×10⁻⁶ cm/s | 6.17 ± 0.57 ×10⁻⁶ cm/s | 1.65 | – | approximately 2.0 times | 2.93 | > 2 | 0.14 ± 0.044 ×10⁻⁶ cm/s | 0.41 ± 0.05 ×10⁻⁶ cm/s | 42.32% | 4.48 ± 1.06 ×10⁻⁶ cm/s | 7.57 ± 0.36 ×10⁻⁶ cm/s | 1.69 | – | – | – | – | – | – | absorbance percentage, rank among all indole alkaloids (Caco-2 cells monolayer; GE sample, apical to basolateral, during 4 h): highest |
| C=C[C@@]12CN(C)[C@H]3C[C@]14C(=Nc1ccccc14)[C@H]1C[C@@H]2[C@@H]3CO1 [Koumine, koumine] | – | 348 ± 67.4 ×10⁻⁶ cm/s | 416 ± 80.5 ×10⁻⁶ cm/s | 1.19 | – | – | 1.13 | ~1 | 11.8 ± 4.01 ×10⁻⁶ cm/s | 13.4 ± 3.84 ×10⁻⁶ cm/s | – | 440 ± 93.3 ×10⁻⁶ cm/s | 524 ± 91.5 ×10⁻⁶ cm/s | 1.19 | – | – | – | – | – | – | – |
| CCC1=N[C@H]2C[C@@]3(C(=O)N(OC)c4ccccc43)[C@H]3C[C@@H]1[C@@H]2CO3 [Gelsenicine, gelsenicine] | 41.42% | – | – | – | about 12% | approximately 2.0 times | 2.39 | – | – | – | 40.59% | – | – | – | 86.6 ± 15.8 ×10⁻⁶ cm/s | 122 ± 26.1 ×10⁻⁶ cm/s | 1.4 | > 2 | 2.8 ± 0.11 ×10⁻⁶ cm/s | 6.69 ± 1.35 ×10⁻⁶ cm/s | Papp A→B at 4 h (P-gp and MRP2): 101 ± 28.4 ×10⁻⁶ cm/s; Papp B→A at 4 h (P-gp and MRP2): 143 ± 10.8 ×10⁻⁶ cm/s; efflux ratio at 4 h (P-gp and MRP2): 1.42 |
| C=C[C@]12CN(C)[C@@H]3[C@H]4CO[C@H](C[C@H]41)[C@]1(C(=O)Nc4ccccc41)[C@@H]32 [Gelsemine, gelsemine] | – | – | – | – | – | – | 1.07 | – | – | – | – | – | – | – | 30.3 ± 7.45 ×10⁻⁶ cm/s | 33.2 ± 8 ×10⁻⁶ cm/s | 1.09 | ~1 | 6.83 ± 2.64 ×10⁻⁶ cm/s | 7.33 ± 2.77 ×10⁻⁶ cm/s | Papp A→B at 4 h (P-gp and MRP2): 35.6 ± 7.63 ×10⁻⁶ cm/s; Papp B→A at 4 h (P-gp and MRP2): 39.1 ± 8.91 ×10⁻⁶ cm/s; efflux ratio at 4 h (P-gp and MRP2): 1.1 |
